What was measured:
[1] = tested on: OVCAR3 ovarian cancer cells; test: Inhibitory activity against ovarian cancer cells (OVCAR3), CellTiter-Glo viability; format: cell-based; conditions: Homo sapiens, OVCAR-3, 120 h, OVCAR3, 5 days treatment
Experimental: OVCAR3 ovarian cancer cells were cultured in a cell incubator at […] with 5% CO2 using RPMI 1640 medium with […]. On the first day, the cells were plated in a 96-well plate at a cell concentration of 2500 cells/well and cultured overnight in the incubator. On the second day, the cells were treated with compounds. The maximum compound concentration was 10 μM and was 3-fold diluted to obtain 9 concentrations, and the final concentration of DMSO was 0.1%. After the cells were cultured in the incubator for another 5 days, cell viability was tested using the Celltiter Glo assay kit (Promega), and the testing method was consistent with the operational method provided by the kit. Data were processed using GraphPad Prism 8, and IC50 was calculated.
(§1) [formula] • X: the logarithm of the compound concentration; Y: % inhibition.

[2] = tested on: MCF7 Palbo-R (palbociclib-resistant cells constructed on MCF7); test: Inhibitory activity against tumor cells, CellTiter-Glo: MCF7 Palbo-R; format: cell-based; conditions: Homo sapiens, 168 h, 7 days treatment
Experimental: (§2) MCF7 (ATCC #HTB-22) and T47D (ATCC #HTB-133) breast cancer cells and PANC-1 (ATCC #CRL-1469) pancreatic cancer cells were purchased from ATCC. MDA-MB-231 (Cobioer #CBP60382), HCC1806 (Cobioer #CBP60373), and MDA-MB-468 (Cobioer #CBP60387) breast cancer cells, HCT-116 (Cobioer #CBP60028) colorectal cancer cells, and OCI-AML-3 (Cobioer #CBP60817) and MV-4-11 (Cobioer #CBP60522) leukemia cells were purchased from Nanjing Cobioer Biosciences Co., Ltd.
(§3) OCI-AML-3 was cultured in RPMI 1640 medium with 20% FBS; HCC1806 and T47D were cultured in RPMI 1640 medium with 10% FBS; MCF7, MDA-MB-231, MDA-MB-468, and PANC-1 were cultured in DMEM medium with 10% FBS; MV-4-11 was cultured in IMDM medium with 20% FBS; HCT-116 was cultured in MC′5A medium with 10% FBS.
(§4) Palbociclib-resistant cells were constructed on MCF7 parent cells, designated MCF7 Palbo-R, and the culture conditions were consistent with those of the parent cells. All tumor cells were cultured in a cell incubator at 37° C. with 5% CO2. The cells were seeded at corresponding cell densities (600 cells/well for MDA-MB-231; 500 cells/well for MDA-MB-468, PANC-1, and HCT-116; 200 cells/well for MCF7 and HCC1806; 800 cells/well for MCF7 Palbo-R; 3000 cells/well for OCI-AML-3 and MV-4-11) in 384-well plates and cultured overnight in the incubator. On the second day, the cells were treated with compounds. The maximum compound concentration was 10 μM and was 3-fold diluted to obtain 9 concentrations, each tested in duplicate, and the final concentration of DMSO was 0.1%. The cells continued to be cultured in the incubator, with MDA-MB-231, PANC-1, MDA-MB-468, OCI-AML-3, and MV-4-11 being treated with drugs for 5 days and HCC1806, MCF7, MCF7 Palbo-R, and HCT116 being treated with drugs for 7 days. Cell viability was tested using the Celltiter Glo assay kit (Promega), and the testing method was consistent with the operational method provided by the kit. Readings were taken using an Envision multimode microplate reader. Data were processed using GraphPad Prism 8, and IC50 was calculated. […]

[3] = tested on: PANC-1 pancreatic cancer cells; test: Inhibitory activity against tumor cells, CellTiter-Glo: PANC-1; format: cell-based; conditions: Homo sapiens, 120 h, PANC-1, 5 days treatment
Experimental: as §2, §3, §4

[4] = tested on: MDA-MB-468 breast cancer cells; test: Inhibitory activity against tumor cells, CellTiter-Glo: MDA-MB-468; format: cell-based; conditions: Homo sapiens, 120 h, MDA-MB-468, 5 days treatment
Experimental: as §2, §3, §4

[5] = tested on: HCT-116 colorectal cancer cells; test: Inhibitory activity against tumor cells, CellTiter-Glo: HCT-116; format: cell-based; conditions: Homo sapiens, 168 h, HCT-116, 7 days treatment
Experimental: as §2, §3
Palbociclib-resistant cells were constructed on MCF7 parent cells, designated MCF7 Palbo-R, and the culture conditions were consistent with those of the parent cells. All tumor cells were cultured in a cell incubator at 37° C. with 5% CO2. The cells were seeded at corresponding cell densities (600 cells/well for MDA-MB-231; 500 cells/well for MDA-MB-468, PANC-1, and HCT-116; 200 cells/well for MCF7 and HCC1806; 800 cells/well for MCF7 Palbo-R; 3000 cells/well for OCI-AML-3 and MV-4-11) in 384-well plates and cultured overnight in the incubator. On the second day, the cells were treated with compounds. The maximum compound concentration was 10 μM and was 3-fold diluted to obtain 9 concentrations, each tested in duplicate, and the final concentration of DMSO was 0.1%. The cells continued to be cultured in the incubator, with MDA-MB-231, PANC-1, MDA-MB-468, OCI-AML-3, and MV-4-11 being treated with drugs for 5 days and HCC1806, MCF7, MCF7 Palbo-R, and HCT116 being treated with drugs for 7 days. Cell viability was tested using the Celltiter Glo assay kit (Promega), and the testing method was consistent with the operational method provided by the kit. Readings were taken using an Envision multimode microplate reader. Data were processed using GraphPad Prism 8, and IC50 was calculated.
Y=Bottom+(Top−Bottom)/(1+10^((Log IC50−X)×HillSlope)). Calculation formula: • X: the logarithm of the compound concentration; Y: % inhibition.

MV-4-11 leukemia cells = test: Inhibitory activity against tumor cells, CellTiter-Glo: MV-4-11; format: cell-based; conditions: Homo sapiens, MV4-11, 120 h, MV-4-11, 5 days treatment
Experimental: as §2, §3, §4

CDK5/p25 = CDK5/p25 (Homo sapiens, UniProt Q00535); test: ADP-Glo kinase assay, CDK5; format: biochemical; conditions: 11.5 nM CDK5/p25, 10 μM ATP (Km), Histone H1, 60 min; read-out: inhibitory activity (IC50, nM) CDK5
Experimental: The ADP-Glo kinase assay was used for testing the activity of CDKs. The compounds were diluted in 384-well plates using Echo. The starting concentration was 10 μM and was 3-fold diluted to obtain 10 concentration points, each tested in duplicate, and the final concentration of DMSO in the assay system was 1%. CDK solutions (the final concentrations were 16.5 nM CDK1/CyclinB, 1 nM CDK2/CyclinE1, 16.3 nM CDK4/CyclinD1, 11.5 nM CDK5/p25, 15.7 nM CDK6/CyclinD3, 80 nM CDK7/Cyclin H/MAT1, 15.3 nM CDK9/Cyclin T1, and 150 nM CDK12/CyclinK) prepared in assay buffer were added at 2.5 μL, and the enzymes and compounds were pre-incubated at room temperature for 10 min. ATP (the concentration was Km) & substrate solutions (20 μM ATP & 0.1 mg/mL Histone H1 Protein for CDK1/CyclinB, 15 μM ATP & 0.1 mg/mL Histone H1 Protein for CDK2/CyclinE1, 200 μM ATP & 0.2 mg/mL DYRKtide peptide for CDK4/CyclinD1, 10 μM ATP & 0.1 mg/mL Histone H1 Protein for CDK5/p25, 200 μM ATP & 0.1 mg/mL Histone H1 Protein for CDK6/CyclinD3, 70 μM ATP & 0.2 mg/mL MBP for CDK7/Cyclin H/MAT1, 60 μM ATP & 0.2 mg/mL PDKtide for CDK9/Cyclin T1, and 20 μM ATP & 80 μM pS7-CTD peptide for CDK12/CyclinK) prepared in assay buffer were added at 2.5 μL. […] Readings were taken using an Envision multimode microplate reader. Data were processed using GraphPad Prism 8, and IC50 was calculated. […]

CDK7/Cyclin H/MAT1 = CDK7/Cyclin H/MAT1 (Homo sapiens, UniProt P50613); test: ADP-Glo kinase assay, CDK7; format: biochemical; conditions: for IC50: 80 nM CDK7/Cyclin H/MAT1, 70 μM ATP (Km), MBP, 60 min, read-out: inhibitory activity (IC50, nM) CDK7; for selectivity for CDK2/CDK7 compared with Janssen-01: from IC50 of Table 6, statement in words
Experimental: The ADP-Glo kinase assay was used for testing the activity of CDKs. The compounds were diluted in 384-well plates using Echo. The starting concentration was 10 μM and was 3-fold diluted to obtain 10 concentration points, each tested in duplicate, and the final concentration of DMSO in the assay system was 1%. CDK solutions (the final concentrations were 16.5 nM CDK1/CyclinB, 1 nM CDK2/CyclinE1, 16.3 nM CDK4/CyclinD1, 11.5 nM CDK5/p25, 15.7 nM CDK6/CyclinD3, 80 nM CDK7/Cyclin H/MAT1, 15.3 nM CDK9/Cyclin T1, and 150 nM CDK12/CyclinK) prepared in assay buffer were added at 2.5 μL, and the enzymes and compounds were pre-incubated at room temperature for 10 min. ATP (the concentration was Km) & substrate solutions (20 μM ATP & 0.1 mg/mL Histone H1 Protein for CDK1/CyclinB, 15 μM ATP & 0.1 mg/mL Histone H1 Protein for CDK2/CyclinE1, 200 μM ATP & 0.2 mg/mL DYRKtide peptide for CDK4/CyclinD1, 10 μM ATP & 0.1 mg/mL Histone H1 Protein for CDK5/p25, 200 μM ATP & 0.1 mg/mL Histone H1 Protein for CDK6/CyclinD3, 70 μM ATP & 0.2 mg/mL MBP for CDK7/Cyclin H/MAT1, 60 μM ATP & 0.2 mg/mL PDKtide for CDK9/Cyclin T1, and 20 μM ATP & 80 μM pS7-CTD peptide for CDK12/CyclinK) prepared in assay buffer were added at 2.5 μL. After thorough mixing, the plates were incubated at room temperature, with CDK1/4/9/12/13 incubated for 120 min and CDK2/5/6/7 incubated for 60 min. ADP-Glo reagents were added at 4 μL, and the plates were incubated at room temperature for 40 min. Kinase detection reagents were added at 8 μL, and the plates were incubated at room temperature for 40 min. Readings were taken using an Envision multimode microplate reader. Data were processed using GraphPad Prism 8, and IC50 was calculated.
as §1

CDK7/Cyclin H/MAT1, sequence (P50613 whole entry, species assumed): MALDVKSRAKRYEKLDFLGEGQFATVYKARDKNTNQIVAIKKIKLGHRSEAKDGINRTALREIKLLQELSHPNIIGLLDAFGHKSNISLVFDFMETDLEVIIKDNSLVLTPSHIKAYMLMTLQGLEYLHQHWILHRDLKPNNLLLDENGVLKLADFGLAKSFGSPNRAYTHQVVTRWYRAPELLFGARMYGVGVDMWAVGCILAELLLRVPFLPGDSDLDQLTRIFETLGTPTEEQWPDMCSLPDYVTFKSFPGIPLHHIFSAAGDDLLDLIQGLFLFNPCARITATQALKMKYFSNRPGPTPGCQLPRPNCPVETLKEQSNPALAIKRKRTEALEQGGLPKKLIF
CDK7/Cyclin H/MAT1, sequence (P51946 whole entry partner, species assumed): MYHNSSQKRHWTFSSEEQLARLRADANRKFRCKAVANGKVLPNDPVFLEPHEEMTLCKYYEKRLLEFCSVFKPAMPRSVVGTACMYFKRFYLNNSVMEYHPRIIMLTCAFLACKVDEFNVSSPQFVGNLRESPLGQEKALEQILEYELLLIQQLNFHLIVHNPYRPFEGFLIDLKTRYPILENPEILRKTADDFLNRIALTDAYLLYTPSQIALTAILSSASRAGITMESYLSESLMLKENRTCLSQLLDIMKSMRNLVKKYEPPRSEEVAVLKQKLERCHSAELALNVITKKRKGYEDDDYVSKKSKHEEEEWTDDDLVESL
CDK7/Cyclin H/MAT1, sequence (P51948 whole entry partner, species assumed): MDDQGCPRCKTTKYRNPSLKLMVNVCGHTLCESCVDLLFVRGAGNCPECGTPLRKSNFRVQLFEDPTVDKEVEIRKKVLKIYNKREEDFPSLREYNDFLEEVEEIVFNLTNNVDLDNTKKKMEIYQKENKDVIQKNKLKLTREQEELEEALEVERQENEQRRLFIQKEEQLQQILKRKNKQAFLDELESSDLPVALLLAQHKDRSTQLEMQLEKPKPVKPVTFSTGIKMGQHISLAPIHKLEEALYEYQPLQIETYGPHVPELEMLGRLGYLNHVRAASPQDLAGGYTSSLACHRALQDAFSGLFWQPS
CDK5/p25, sequence (Q00535 whole entry, species assumed): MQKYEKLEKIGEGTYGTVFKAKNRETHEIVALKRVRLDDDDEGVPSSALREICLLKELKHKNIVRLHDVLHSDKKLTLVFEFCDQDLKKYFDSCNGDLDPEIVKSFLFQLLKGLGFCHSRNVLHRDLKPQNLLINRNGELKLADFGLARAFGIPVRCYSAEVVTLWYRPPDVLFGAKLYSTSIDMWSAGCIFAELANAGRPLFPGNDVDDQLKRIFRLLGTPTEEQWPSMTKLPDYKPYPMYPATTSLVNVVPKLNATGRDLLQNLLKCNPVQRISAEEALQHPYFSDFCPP
CDK5/p25, sequence (Q15078 99-307 partner limits assumed, species assumed): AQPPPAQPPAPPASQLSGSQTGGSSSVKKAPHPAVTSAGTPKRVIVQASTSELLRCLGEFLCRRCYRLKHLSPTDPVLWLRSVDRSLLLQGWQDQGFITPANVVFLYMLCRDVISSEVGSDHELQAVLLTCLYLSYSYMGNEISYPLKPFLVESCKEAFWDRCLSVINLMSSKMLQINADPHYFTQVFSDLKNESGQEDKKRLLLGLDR

| IC50 [1] [nM] | IC50 [2] [nM] | IC50 [3] [nM] | IC50 [4] [nM] | IC50 [5] [nM] | IC50 (MV-4-11 leukemia cells) [nM] | IC50 (CDK5/p25) [nM] | IC50 (CDK7/Cyclin H/MAT1) [nM] | Structure (SMILES) | selectivity for CDK2/CDK7 compared with Janssen-01 (CDK7/Cyclin H/MAT1) |
| --- | --- | --- | --- | --- | --- | --- | --- | --- | --- |
| 24.2 | 40.6 | 45.9 | 30 | 75.6 | 18.2 | 6310 | 21.9 | C[C@@H]1Cc2cnc(NCc3ccn(C)n3)nc2CN1C(=O)N[C@H](CN(C)C)c1ccccc1 [Example 2, (R)—N—((S)-2-(Dimethylamino)-1-phenylethyl)-6-methyl-2-(((1-methyl-TH-pyrazol-3-yl)methyl)amino)-5,8-dihydropyrido[3,4-d]pyrimidine-7(6H)-carboxamide] | significantly better selectivity for CDK2/CDK7 than Janssen-01 |
| 27.7 | 24.6 | 17.7 | 21.2 | 46.9 | 19.1 | 6420 | 28.4 | C[C@H](Nc1ncc2c(n1)CN(C(=O)N[C@H](CN(C)C)c1ccccc1)[C@H](C)C2)c1ccccn1 [Example 6, (R)—N—((S)-2-(Dimethylamino)-1-phenylethyl)-6-methyl-2-(((S)-1-(pyridin-2-yl)ethyl)amino)-5,8-dihydropyrido[3,4-d]pyrimidine-7(6H)-carboxamide] | significantly better selectivity for CDK2/CDK7 than Janssen-01 |
